The record followed here is patent US11911397B2, “Anordrin compositions and methods for treating diseases” (Zhejiang Jiachi Development Pharmaceuticals LTD, priority 2014, dated 2024).

The structures appear in SMILES notation.

The test system of one assay is db/db mice. Put plainly: blood glucose in db/db mice. It is filed as in vivo.
For another assay, the system named is T47D cells. Put plainly: EGF-induced T47D cell growth. The assay is classed as cell-based. The following applies: 7.5 μM, 10 ng/ml EGF.
A further assay concerns the target T1, ER-α-36 (Homo sapiens, UniProt P03372).
T1 construct: expressed in transfected cells; host or cells: HEK-293
Put plainly: 3H-E2 binding to ER-α-36 expressed in HEK-293 cells. The following applies: blocking at low, facilitating at higher concentrations. The text has this:
MIESs effect their regulation of cell proliferation, migration, cell-cell junction and matrix, and energy metabolism through a series of scaffold protein complexes. ER-α association with the plasma membrane is facilitated by palmitoylation at residue C447 in the LBD. […] To verify this, we measured the binding affinity of 3H-E2 with GST-ER-α-36 expressed and purified from E. coli. […] In contrast, 3H-E2 does bind to GST-ER-α-46, which has a full length ER-α-LBD.
Isolation of microsome and Drug competition assay: Cells were harvested and lysed in TE buffer (50 mM Tris (pH8.0), 5 mM EDTA, 2 mM PMSF and protease inhibitor cocktail (Sigma)) for 30 min with vortexing every 5 min. 80% glycerol in TE buffer was added to cell lysates to reach 20% and centrifuged at 800 g for 5 min. The supernatant was transferred to new tubes and total protein concentration was adjusted to 5 mg/ml. Drugs and ^3H-E2 were added to 1 ml protein solution and incubated at 4° C. for 2 hours. Microsome was precipitated at 25 krpm for 2 hours. Bound ^3H-E2 was measured using GM meter.

T1 sequence (P03372 1-310 isoform P03372-4): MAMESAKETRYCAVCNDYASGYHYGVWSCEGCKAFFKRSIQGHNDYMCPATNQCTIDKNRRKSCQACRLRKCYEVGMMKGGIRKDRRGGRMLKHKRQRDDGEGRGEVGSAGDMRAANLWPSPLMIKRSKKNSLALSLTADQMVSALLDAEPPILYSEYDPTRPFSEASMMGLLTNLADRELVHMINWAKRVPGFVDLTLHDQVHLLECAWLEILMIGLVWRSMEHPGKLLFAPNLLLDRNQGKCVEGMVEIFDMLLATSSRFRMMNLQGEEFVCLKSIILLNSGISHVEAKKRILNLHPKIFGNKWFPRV

With `C#C[C@@]1(OC(=O)CC)C[C@@H]2CC[C@@H]3[C@H](CC[C@@]4(C)[C@H]3CC[C@]4(C#C)OC(=O)CC)[C@@]2(C)C1` [anordrin, 2α,17α-diethynyl-A-nor-5α-androstane-2β,17β-diol dipropionate], the “whole blood glucose / glucose consumption” value in the assay on db/db mice (female db/db mice, 0.45 μg/g body mass daily, 4 weeks) is listed as “improved glucose consumption”. In addition, in the assay with db/db mice (male db/db mice, data not shown), the glucose consumption result was “no affect”. Besides, the EGF-induced cell growth entry with T47D cells was “blocked the increase in cell growth”. For the same molecule, the “effect on 3H-E2 binding to ER-α-36” value at ER-α-36 is recorded as “biphasic effect”.
